Results published in ChEMBL document CHEMBL4339234, “Synthesis and in vitro biological evaluation of new P2X7R radioligands [11C]halo-GSK1482160 analogs” (Bioorg Med Chem Lett, 2019).

What was measured:
[1] = molecular target: T1, P2X purinoceptor 7 (Homo sapiens, UniProt Q99572); assay: Displacement of [11C]GSK1482160 from human recombinant P2X7 receptor expressed in HEK293 cell membranes incubated for 30 mins by scintillation counting method based radioligand competitive binding assay
T1 sequence (Q99572 whole entry): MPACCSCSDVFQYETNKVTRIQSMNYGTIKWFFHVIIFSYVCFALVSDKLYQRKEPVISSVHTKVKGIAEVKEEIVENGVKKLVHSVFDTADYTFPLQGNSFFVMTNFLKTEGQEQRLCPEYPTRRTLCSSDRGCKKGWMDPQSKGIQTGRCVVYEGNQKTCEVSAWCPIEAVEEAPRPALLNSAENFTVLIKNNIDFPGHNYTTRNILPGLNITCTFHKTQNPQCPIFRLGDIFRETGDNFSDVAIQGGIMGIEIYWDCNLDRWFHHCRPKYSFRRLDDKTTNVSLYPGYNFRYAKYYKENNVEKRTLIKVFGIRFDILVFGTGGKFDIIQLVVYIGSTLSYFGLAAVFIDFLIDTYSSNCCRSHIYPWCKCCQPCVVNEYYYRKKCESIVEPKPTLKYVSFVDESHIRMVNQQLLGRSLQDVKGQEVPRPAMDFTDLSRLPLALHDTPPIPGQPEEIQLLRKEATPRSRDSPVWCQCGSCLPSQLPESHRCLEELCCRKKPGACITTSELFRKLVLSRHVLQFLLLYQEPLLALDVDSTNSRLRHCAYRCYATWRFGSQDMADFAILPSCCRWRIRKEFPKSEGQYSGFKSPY

[2] = molecular target: T1, P2X purinoceptor 7; assay: Competitive displacement of [11C]GSK1482160 from human recombinant P2X7 receptor expressed in HEK293 cell membranes incubated for 30 mins by scintillation counting method based radioligand competitive binding assay

IC50 [1] [nM] | Ki [2] [nM] | SMILES
153 | 54.2 | CN1C(=O)CC[C@H]1C(=O)NCc1cccc(C(F)(F)F)c1F
7.1 | 2.5 | CN1C(=O)CC[C@H]1C(=O)NCc1cccc(C(F)(F)F)c1Br
5.3 | 1.9 | CN1C(=O)CC[C@H]1C(=O)NCc1cccc(C(F)(F)F)c1I
 | 3.1 | CN1C(=O)CC[C@H]1C(=O)NCc1cccc(C(F)(F)F)c1Cl [GSK1482160]
